In patent US9732059B2, “Methods of use of cyclic amide derivatives to treat schizophrenia” (Minerva Neurosciences, Inc., priority 2010, dated 2017):
“Also recorded” adds a separate entry of the source.

Columns and labels:
[1] = molecular target: 5-HT2A (Homo sapiens, UniProt P28223); conditions: known: dual 5-HT2A/sigma 2; cited from earlier work
[2] = tested on: dopamine; conditions: known; cited from earlier work
[3] = tested on: patients with DSM-IV schizophrenia; experiment: Phase 2 double-blind, randomized, placebo-controlled proof of concept study: efficacy scales (PANSS, CGI-S, DAI-10, PSQI, BACS, MADRS, HAMA); format: in vivo, human
Method: A study was conducted using the compound of formula II, to examine the efficacy on schizophrenia and treatment of symptoms of schizophrenia. The study was a multi-center, inpatient and ambulatory, phase 2, double-blind, randomized, placebo-controlled proof of concept study of the compound of formula II in patients with DSM-IV schizophrenia. The study used 21 centers across three different countries.
(§1) The study was designed to test the therapeutic efficacy of the compound of formula II on all dimensions of schizophrenic disease (E.g., positive, negative, and general symptoms, cognition, sleep, mood and anxiety). The study also examined the safety of the administered doses of the compound of formula II (also referred to herein as CYR-101), including heart repolarization (i.e., QT interval), weight change, adverse events, prolactin, and extrapyramidal symptoms).
The study was conducted for a time period of three months.
The objectives of the study included the following: • 1. Evaluate the efficacy versus placebo of CYR-101 on global PANSS score and sub-scores after one month (28 days+/− 2 days) of treatment • 2. […] Evaluate the efficacy versus placebo of CYR-101 as assessed by the CGI-S after one and three months of treatment • 4. Evaluate subjective efficacy in patients of CYR-101 versus placebo as assessed by the Drug Attitude Inventory-10 (DAI-10) after one and three months of treatment • 5. Evaluate subjective sleep quality as assessed by Pittsburgh Sleep Quality Index (PSQI) after three month of treatment • 6. Explore the efficacy versus placebo of CYR-101 on cognitive function as measured by BACS (Brief Assessment of Cognition in Schizophrenia) scale after one and three months of treatment • 7. Evaluate the efficacy versus placebo of CYR-101 in depressive symptoms as measure by the Montgomery-Asberg Depression Rating Scale (MADRS) total score after one month of treatment • 8. Evaluate the efficacy versus placebo of CYR-101 in anxiety as measured by the Hamilton Anxiety Scale (HAMA) total score after one month of treatment • 9. Assess cardio-vascular safety (particularly ventricular repolarisation as assessed by QT/QTc interval measurements) of CYR-101 compared with placebo • 10. Assess the global safety and tolerability of CYR-101 compared with placebo • 11. Determine the pharmacokinetics of CYR-101 in schizophrenic patients
(§2) CYR-101 8 mg oral sustained release (SR) tablet, oral administration of 1, 2, or 4 tablets (8, 16 or 32 mg of CYR-101) was administered twice daily in fed condition. During the dose adjustment period, CYR-101 was administered orally, twice a day in the morning and in the evening, at the daily dose of 16 mg for two days, then titrated up every two days to 32 mg and 64 mg respectively. During the fixed-dose period, the optimal adjusted dose evaluated for each patient or the maximum daily dose of 64 mg of CYR-101 was administered. In one aspect of the study, the dosage of compound was titrated up to 32 mg b.i.d.
During the lead-in period, oral administration of 1 placebo SR tablet was conducted twice a day for 3 days. During the dose adjustment and fixed-dose periods, oral administration of 1, 2, or 4 placebo SR tablets was used twice daily as performed for the test product.
The resulting data was analyzed one of three ways: 1.) Safety set; 2.) Full analysis set, with each patient having at least one PANSS evaluation after treatment initiation included in the efficacy analysis. The LOCF method is used; and 3.) Per protocol set, where for certain analyses, all patients having completed three months of treatment are included. ANCOVA followed by a contrast analysis at each time point were applied and in some cases, a non-parametric Wilcoxon test was used.
1. Primary: PANSS total score and sub-scores, after one month of treatment
2. […]

[4] = tested on: patients with DSM-IV schizophrenia; experiment: Phase 2 clinical study: safety (extrapyramidal symptoms, adverse events, QT interval); format: in vivo, human
Method: as §1, §2
4. Safety: 12-lead ECG, adverse event (AE) recording, vital signs, physical examination, weight and waist circumference, safety lab tests, evaluation of extra-pyramidal symptoms (measured by Simpson and Angus scale), and prolactin levels.
3. Safety: Descriptive statistics on the safety set for extent of exposure, adverse events recording, safety lab tests, 12-lead ECG parameters, vital signs, and physical examination, weight and waist circumference, extra-pyramidal symptoms, prolactin levels.

[5] = molecular target: sigma 2 receptor (Homo sapiens, UniProt Q5BJF2); conditions: cited from earlier work
[6] = tested on: schizophrenic patients; experiment: Polysomnographic (PSG) sleep recording in a sub-group of patients; format: in vivo, human
Excerpt: 3. Exploratory: In a sub-group of patients, polysomnographic sleep continuity and sleep architecture parameters.
2. Secondary efficacy variables: Same method for the PANSS total and sub-scores at three months of treatment, BACS, DAI-10, MADRS, HAMA, and PSQI on the Full Analysis Set (FAS). Last Observation Carried Forward (LOCF) procedure used for missing data imputation. Analysis of variance (ANOVA) for the Readiness for Discharge Questionnaire (RDQ) at 14 days. Wilcoxon rank sum test for CGI-S. Descriptive statistics and graphical presentation on changes from baseline on FAS. Efficacy analyses (ANCOVA) additionally performed on the Per Protocol Set. Supportive exploratory analysis on PANSS using longitudinal, likelihood-based, mixed-effect model on FAS without missing data imputation. On a subtest of patients, polysomnographic (PSG) recording parameters analyzed using descriptive statistics and ANCOVA on changes from baseline.
Polysomnographic recordings took place in a sub-group of patients. Sleep was recorded from 11:00 pm to 7:00 am on D-1 after a habituation night (baseline condition) and on D14. Analyses regarding sleep continuity, stage distribution, and stage profile parameters were exploratory. The treatment differences on each of these sleep parameters were analyzed using D14 values with ANOVAs and ANCOVAs with country and treatment as main effects and baseline as covariate.
Among the 33 patients who had performed a PSG recording at visit lead-in day-1, 19 received placebo and 14 received the study treatment. Among these, […] experienced technical problem and/or insomnia during baseline and/or treatment night and were therefore excluded from the analysis. Finally, 20 patients were included in the analysis set of ANOVA and 19 patients were included in the analysis set of ANCOVA, and according to the SAP, only ANCOVA results were taken into account and are further discussed in the next sections.

[7] = D14, ANCOVA contrast, not statistically significant
[8] = D14, ANCOVA, no significant treatment effect
[9] = D14, not statistically significant

Chain of 5-HT2A (P28223 whole entry, species assumed): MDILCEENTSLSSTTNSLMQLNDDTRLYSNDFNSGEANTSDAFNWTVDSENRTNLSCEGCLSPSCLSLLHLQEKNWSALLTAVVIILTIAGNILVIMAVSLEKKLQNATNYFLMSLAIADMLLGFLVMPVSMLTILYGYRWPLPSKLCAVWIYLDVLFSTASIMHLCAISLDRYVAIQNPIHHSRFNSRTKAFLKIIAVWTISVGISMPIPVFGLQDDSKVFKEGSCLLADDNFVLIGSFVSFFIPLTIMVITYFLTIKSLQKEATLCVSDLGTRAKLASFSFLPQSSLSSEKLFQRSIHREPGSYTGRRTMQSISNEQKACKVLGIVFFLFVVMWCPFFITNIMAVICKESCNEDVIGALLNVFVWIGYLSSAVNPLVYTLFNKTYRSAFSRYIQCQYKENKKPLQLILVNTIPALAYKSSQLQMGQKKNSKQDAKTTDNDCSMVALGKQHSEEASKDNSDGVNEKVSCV
Chain of sigma 2 receptor (Q5BJF2 whole entry, species assumed): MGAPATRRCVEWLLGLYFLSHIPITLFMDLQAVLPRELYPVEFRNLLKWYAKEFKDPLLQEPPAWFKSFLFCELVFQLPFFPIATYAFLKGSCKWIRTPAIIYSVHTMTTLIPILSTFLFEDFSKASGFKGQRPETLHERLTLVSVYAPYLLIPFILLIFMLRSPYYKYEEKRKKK

**Q.** Which “Mode of action at 5-HT2A” value [1] does the source give for `O=C(CN1CCC(CN2Cc3ccccc3C2=O)CC1)c1ccc(F)cc1` [CYR-101, 2-[[1-[2-(4-Fluorophenyl)-2-oxoethyl]piperidin-4-yl]methyl]isoindolin-1-one] here?
**A.** antagonist

**Q.** What about the Dopamine binding properties [2] of the same compound?
**A.** devoid of dopamine binding properties

**Q.** What about the “PANSS general psychopathology sub-score, treatment difference vs placebo” value ([3]; D28, FAS) of the same compound?
**A.** no treatment difference

**Q.** And the “PANSS positive sub-score, treatment difference vs placebo” value ([3]; D28, FAS)?
**A.** no treatment difference

**Q.** What about the “PANSS total score, change from baseline, treatment difference vs placebo” value ([3]; D28, FAS) of the same compound?
**A.** no treatment difference

**Q.** And the “PANSS negative sub-score decrease” value ([3]; D28, FAS, p<0.01)?
**A.** −1.9

**Q.** And the “PANSS general psychopathology sub-score, treatment difference vs placebo” value ([3]; D28, PPC)?
**A.** no treatment difference

**Q.** And the “PANSS positive sub-score, treatment difference vs placebo” value ([3]; D28, PPC)?
**A.** no treatment difference

**Q.** What about the “PANSS total score, treatment difference vs placebo” value ([3]; D28, PPC) of the same compound?
**A.** no treatment difference

**Q.** What about the “PANSS negative sub-score decrease” value ([3]; D28, PPC, p<0.0010) of the same compound?
**A.** −4.7

**Q.** And the “PANSS general psychopathology sub-score, treatment difference vs placebo” value ([3]; D84, FAS)?
**A.** no significant treatment difference

**Q.** What about the “PANSS positive sub-score, treatment difference vs placebo” value ([3]; D84, FAS) of the same compound?
**A.** no significant treatment difference

**Q.** And the “PANSS total score, change from baseline, treatment difference vs placebo” value ([3]; D84, FAS)?
**A.** no significant treatment difference

**Q.** And the “PANSS negative sub-score point estimate decrease” value ([3]; D84, FAS, p<0.01)?
**A.** −2.3

**Q.** What about the “PANSS total score vs placebo” value ([3]; D84, PPC, obvious switch on D56) of the same compound?
**A.** favorable trend of CYR-101 over placebo

**Q.** What about the “PANSS negative sub-score improvement” value ([3]; D84, PPC, p<0.001, treatment difference vs placebo p=0.0581) of the same compound?
**A.** −5.8

**Q.** What about the “PANSS positive sub-score vs placebo” value ([3]; D84, PPC, switch between D56 and D70) of the same compound?
**A.** favorable trend of CYR-101 over placebo

**Q.** What about the “PANSS general psychopathology sub-score vs placebo” value ([3]; D84, PPC, switch on D70) of the same compound?
**A.** favorable trend of CYR-101 over placebo

**Q.** And the “Cognitive performances assessed by BACS vs placebo” value ([3]; FAS)?
**A.** no differences between the placebo group and the CYR-101 group, except for the Token motor task

**Q.** What about the “MADRS Total change score, difference vs placebo” value ([3]; FAS and PPC, D28 and D84, reduction in both groups) of the same compound?
**A.** not statistically significant

**Q.** What about the “CGI-S score, difference between CYR-101 and placebo” value ([3]; FAS, D28 and D84) of the same compound?
**A.** no significant difference

**Q.** What about the “HAMA total score change from baseline” value ([3]; FAS, D28 and D84, non statistically significant) of the same compound?
**A.** slight HAMA total score reduction

**Q.** What about the “HAMA total score reduction” value ([3]; PPC, D28, p=0.2920) of the same compound?
**A.** −1.0

**Q.** What about the “BACS Token motor task, list learning task, verbal fluency vs placebo” value ([3]; PPC, D84, descriptive data, not statistically significant) of the same compound?
**A.** slight difference in favor of CYR-101 group; also recorded: slight difference in favour of CYR-101 group

**Q.** What about the “HAMA total score reduction” value ([3]; PPC, D84, p=0.0642) of the same compound?
**A.** −2.9

**Q.** And the “CGI-S mean difference score” value ([3]; PPC, from D56 until D84)?
**A.** non significant but an interesting switch in favor of CYR-101

**Q.** What about the “Improvement of negative symptoms, onset” value ([3]; course of treatment) of the same compound?
**A.** observed immediately

**Q.** And the “Improvement of positive symptoms, onset” value ([3]; course of treatment)?
**A.** did not improve until after the first four weeks of treatment

**Q.** What about the “Duration of improvement in both positive and negative symptoms” value ([3]; in vivo) of the same compound?
**A.** continued for more than twelve weeks

**Q.** And the “Effect on cognition in schizophrenic patients” value ([3]; in vivo)?
**A.** positive effect on cognition

**Q.** And the “DAI-10 total score change from baseline, difference between groups” value ([3]; to D28 and D84, FAS and PPC)?
**A.** no statistically significant difference

**Q.** What about the “Increase in the QT interval” value ([4]; doses up to 32 mg b.i.d., stable over time, limits e.g. 10-15 milliseconds or less) of the same compound?
**A.** did not cross clinically acceptable limits

**Q.** What about the “Emergence or worsening of extrapyramidal symptoms, CYR-101 vs placebo” value ([4]; human, in vivo) of the same compound?
**A.** no significant difference

**Q.** What about the “Number of SAE in the active treatment group” value ([4]; unlikely related to CYR-101 based on the patient history) of the same compound?
**A.** one

**Q.** What about the Receptor binding selectivity [5] of the same compound?
**A.** sigma 2-selective receptor binding

**Q.** And the “Decrease of sleep efficiency index (SEI) compared to placebo” value [6, 7]?
**A.** 2.4%

**Q.** And the “Decrease of total sleep time (TST) compared to placebo” value [6, 7]?
**A.** 13.7 min

**Q.** What about the “Increase of duration of wake after sleep onset (WASO) compared to placebo” value [6, 7] of the same compound?
**A.** 26.6 min

**Q.** What about the “Latency to persistent sleep” value [6, 8] of the same compound?
**A.** trend of improvement

**Q.** What about the Sleep onset latency [6, 8] of the same compound?
**A.** trend of improvement

**Q.** What about the “REM sleep latency contrast” value ([6]; D14, non significant) of the same compound?
**A.** appeared later

**Q.** And the SWS latency contrast ([6]; D14, non significant)?
**A.** appeared sooner

**Q.** What about the “Decrease of REM sleep in SPT2 and in SPT3” value [6, 9] of the same compound?
**A.** 3.03%

**Q.** And the “Increase of REM sleep in the first third of SPT (REM_SPT1)” value [6, 9]?
**A.** 1.4%

**Q.** What about the “Slow Wave Sleep (SWS) compared to placebo” value [6, 9] of the same compound?
**A.** increased

**Q.** What about the “Stage 1 (ST1) compared to placebo” value [6, 9] of the same compound?
**A.** decreased

**Q.** What about the “Stage 2 (ST2 in min) compared to placebo” value [6, 9] of the same compound?
**A.** decreased

**Q.** And the “Total Time Awake (TTA) compared to placebo” value [6, 9]?
**A.** increased

**Q.** What about the “nonREM sleep (NREM) compared to placebo” value [6, 9] of the same compound?
**A.** increased

**Q.** What about the “Decrease of SWS during the last third of SPT (SWS-SPT3) compared to placebo” value ([6]; D14, p<0.05) of the same compound?
**A.** 22.1%

**Q.** What about the “Increase of SWS in the first third of SPT (SWS-SPT1) compared to placebo” value ([6]; D14, p<0.05) of the same compound?
**A.** 23.6%

**Q.** What about the “REM sleep (REM) compared to placebo” value ([6]; D14, significant only for REM-TST (p<0.05)) of the same compound?
**A.** decreased
